Measured values taken from patent EP4603088A1, “N-PALMITOYLET[…] USE IN COMBINATION WITH MELOXICAM IN THE TREATMENT OF IN[…]” (priority 2024, dated 2025).
Several values for one entry are separate records, joined by “and”; a condition that tells them apart may be missing. Equal values may be shown once.

Assays:
[1] = test system: LPS-induced inflammatory pain; assay: LPS-induced inflammatory pain model, paw pressure test; format: in vivo, Male Sprague-Dawley rats; conditions: 60 min after LPS
Method: Male Sprague-Dawley rats were housed in groups of four, in 26x41 cm cages, at a temperature of 23±1°C, with a 12-hour circadian cycle, and water/food "ad libitum" (standard diet). LPS (10 µg in 50 µl of 0.9% NaCl, Sigma-Aldrich) was injected into the plantar surface of the hind paw of the rat following isoflurane anesthesia. Control animals were treated with vehicle alone (0.9% NaCl). Ten minutes before the LPS injection, the compounds to be tested or the vehicle alone (1% CMC) were administered orally, according to the following treatment groups (N=8 where not otherwise specified): • CTRL (healthy animals injected with 0.9% NaCl) • VEIC (animals injected with LPS and treated with vehicle, N=9) • MLX30 (animals injected with LPS and treated with meloxicam 30 mg/kg) • MLX3 (animals injected with LPS and treated with meloxicam 3 mg/kg) • PEA10 (animals injected with LPS and treated with PEA 10 mg/kg) • PEA10+MLX3 (animals injected with LPS and treated with PEA 10 mg/kg + meloxicam 3 mg/kg) • PEA5 (animals injected with LPS and treated with PEA 5 mg/kg) • PEA5 + MLX3 (animals injected with LPS and treated with PEA 5 mg/kg + meloxicam 3 mg/kg).
Inflammatory pain induced by LPS injection was measured by paw pressure test. Briefly, before and sixty min after LPS injection, increasing pressure at a constant rate (32 g/s) was applied to the ipsilateral paw of the rat using a non-sharp conical support. […] An analgesimeter (Ugo Basile, Varese) was used for this purpose. The results were expressed in terms of analgesic potency, defined as percentage inhibition (mean ± SEM) of inflammatory pain induced by LPS and calculated according to the formula: 100*(treatm-VEIC)/(CTRL-VEIC).
The results were analyzed via Generalized Linear Model (GLM) followed by post-hoc analysis based on Tukey-Kramer correction for multiple comparisons. […] In order to verify whether the effect of PEA and meloxicam was synergistic, it was analyzed whether the extent of the inhibition of inflammatory pain by LPS was greater for the association of the two substances compared to the substances used individually. […] All analyses were performed using SAS software, version 9.4 (SAS Institute, Cary, NC, USA). P value < 0.05 was considered significant.

[2] = test system: inflammatory pain induced by Carrageenan; assay: Carrageenan-induced inflammatory pain model, Von Frey test; format: in vivo, male Sprague-Dawley rats; conditions: PEA 3 mg/kg and/or MLX 0.05 mg/kg orally 30 minutes before CAR; 3 and 5 hours after CAR injection; combination p=0.0084 and p=0.0004 vs vehicle
Method: All analyses were performed using SAS software, version 9.4 (SAS Institute, Cary, NC, USA). P value < 0.05 was considered significant.

[3] = administered in ultra-micronized form; Nestmann Food Sci Nutr. 2016; cited from earlier work
[4] = test system: CFA-induced inflammatory pain; assay: CFA-induced inflammatory pain model, paw pressure test; format: in vivo, male Sprague-Dawley rats; conditions: meloxicam 3 mg/kg and/or micronized PEA 10 mg/kg, single administration per os on day 7 after CFA; T0-T60; p = 0.1405 (meloxicam), p = 0.9588 (PEA), p < 0.0001 (combination)
Excerpt: In the in vivo experimentation, male Sprague-Dawley rats (200-250 g) (Envigo, Varese, Italy) fed "ad libitum" and housed in cages with a controlled sleep/wake cycle were used.
Before the start of the study, the animals were subjected to a 1-week acclimatization period at the Center for Laboratory Animal Sheltering (Ce.S.A.L.) of the University of Florence, following all experimental procedures and protocols compliant with the principles of care and welfare of laboratory animals approved by the Italian Ministry of Health (Italian Legislative Decree 2014/26), European directives (EU Directive 2010/63) and the ARRIVE guidelines. […]
All animals were subjected to the paw pressure test at the level of the ipsilateral paw, performed before (T0) or after 15, 30, 45 and 60 minutes after the single administration of the treatment (T15, T30, T45 and T60, respectively). In particular, the nociceptive threshold was calculated with an analgesiometer (Ugo Basile, Varese, Italy) by applying an increasing pressure at constant speed (32 g/s) by means of a non-pointed conical support on the dorsal surface of the ipsilateral paw with respect to the injection of CFA (or vehicle). […]
The AUC was analyzed by a two-way factor analysis of variance (2x2 ANOVA), after plotting the mean values, according to the procedure shown by Slinker BK. […] The values were expressed as mean ± standard error mean (SEM). […]

Structure (SMILES)	analgesic potency, percentage inhibition of inflammatory pain induced by LPS (media) ([1]; PEA 5 mg/kg orally 10 min before LPS)	analgesic potency, percentage inhibition of inflammatory pain induced by LPS (media) ([1]; PEA 10 mg/kg orally 10 min before LPS)	effect on the LPS-induced drop of the nociceptive threshold vs LPS vehicle ([1]; meloxicam at 3 mg/kg and 30 mg/kg, PEA at 5 mg/kg and 10 mg/kg, alone or associated with low-dose meloxicam, p<0.0001 for all comparisons)	analgesic effect vs vehicle (Von Frey test, paw retraction) [2]	dose up to which free of acute and sub-chronic toxicity [3]	inflammatory pain tolerance threshold (paw pressure test), effect with respect to CFA [4]	analgesic potency, percentage inhibition of inflammatory pain induced by LPS (media) ([1]; meloxicam 3 mg/kg orally 10 min before LPS, listed as MLX)	analgesic potency, percentage inhibition of inflammatory pain induced by LPS (media) ([1]; meloxicam 30 mg/kg orally 10 min before LPS, listed as MLX)
CCCCCCCCCCCCCCCC(=O)NCCO [PEA, N-palmitoylethanolamide]	26,46% and 26,5%	54,24% and 54,2%	significantly counteracted the pro-algic effect of LPS	no analgesic effect significantly different from the vehicle	≥ 1000 mg/kg daily	no significant effect		
Cc1cnc(NC(=O)C2=C(O)c3ccccc3S(=O)(=O)N2C)s1 [meloxicam]						no significant effect	46,12% and 46,1%	50,49% and 50,5%
